# According to patent US20170190671A1, “BIS(ARYL)CATECHOL DERIVATIVES AS HERBICIDES” (E I DU PONT DE NEMOURS AND COMPANY, priority 2014, published 2017):
# Tests used:
# Type in all cases: in vivo
# kochia (Kochia scoparia) [1] = experiment: Test A postemergence; conditions: Bassia scoparia, post-emergence, 240 h, 0 to 100 scale, read-out: Plant response rating, Kochia
# Method in brief: (§1)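 Pre- and postemergence greenhouse screen. Soil: loam + sand. Spray carrier: solvent mixture, non-phytotoxic, with surfactant. Post timing at 1–2 leaves, height 2–10 cm. Readout: visual injury on a 0–100 scale roughly 10 days after application, untreated plants as reference.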
# [2] = test system: Italian ryegrass (Lolium multiflorum); experiment: Test A postemergence; conditions: Lolium multiflorum, post-emergence, 240 h, 0 to 100 scale, read-out: Plant response rating, Ryegrass, Italian
# Method in brief: as §1
# [3] = test system: galium (catchweed bedstraw, Galium aparine); experiment: Test A postemergence; conditions: Galium, post-emergence, 240 h, 0 to 100 scale, read-out: Plant response rating, Galium
# Method in brief: as §1
# [4] = test system: ragweed (common ragweed, Ambrosia elatior); experiment: Test A postemergence; conditions: Ambrosia artemisiifolia, post-emergence, 240 h, 0 to 100 scale, read-out: Plant response rating, Ragweed
# Method in brief: as §1
# [5] = test system: pigweed (Amaranthus retroflexus); experiment: Test A postemergence; conditions: Amaranthus retroflexus, post-emergence, 240 h, 0 to 100 scale, read-out: Plant response rating, Pigweed
# Method in brief: as §1
# [6] = test system: giant foxtail (Setaria faberii); experiment: Test A postemergence; conditions: Setaria faberi, post-emergence, 240 h, 0 to 100 scale, read-out: Plant response rating, Foxtail, Giant
# Method in brief: as §1
# [7] = test system: wheat (Triticum aestivum); experiment: Test A postemergence; conditions: Triticum aestivum, post-emergence, 240 h, 0 to 100 scale, read-out: Plant response rating, Wheat
# Method in brief: as §1
# [8] = test system: barnyardgrass (Echinochloa crus-galli); experiment: Test A postemergence; conditions: Echinochloa crus-galli, post-emergence, 240 h, 0 to 100 scale, read-out: Plant response rating, Barnyardgrass
# Method in brief: as §1
# corn (Zea mays) = experiment: Test A postemergence; conditions: Zea mays, post-emergence, 240 h, 0 to 100 scale
# Method in brief: as §1
# [9] = test system: blackgrass (Alopecurus myosuroides); experiment: Test A postemergence; conditions: Alopecurus myosuroides, post-emergence, 240 h, 0 to 100 scale, read-out: Plant response rating, Blackgrass
# Method in brief: as §1
# kochia (Kochia scoparia) [10] = experiment: Test A preemergence; conditions: Bassia scoparia, pre-emergence, 240 h, 0 to 100 scale (0 no effect, 100 complete control), read-out: Kochia plant response rating
# Method in brief: as §1
# [11] = test system: Italian ryegrass (Lolium multiflorum); experiment: Test A preemergence; conditions: Lolium multiflorum, pre-emergence, 240 h, 0 to 100 scale (0 no effect, 100 complete control), read-out: Ryegrass, Italian plant response rating
# Method in brief: as §1
# [12] = test system: ragweed (common ragweed, Ambrosia elatior); experiment: Test A preemergence; conditions: Ambrosia artemisiifolia, pre-emergence, 240 h, 0 to 100 scale (0 no effect, 100 complete control), read-out: Ragweed plant response rating
# Method in brief: as §1
# [13] = test system: pigweed (Amaranthus retroflexus); experiment: Test A preemergence; conditions: Amaranthus retroflexus, pre-emergence, 240 h, 0 to 100 scale (0 no effect, 100 complete control), read-out: Pigweed plant response rating
# Method in brief: as §1
# [14] = test system: giant foxtail (Setaria faberii); experiment: Test A preemergence; conditions: Setaria faberi, pre-emergence, 240 h, 0 to 100 scale (0 no effect, 100 complete control), read-out: Foxtail, Giant plant response rating
# Method in brief: as §1
# [15] = test system: barnyardgrass (Echinochloa crus-galli); experiment: Test A preemergence; conditions: Echinochloa crus-galli, pre-emergence, 240 h
# Method in brief: as §1
# [16] = test system: sedge, umbrella (small-flower umbrella sedge, Cyperus difformis); experiment: Test B flooded paddy; conditions: Cyperus difformis, 336 h; 250 g ai/ha, Flood, 13 to 15 days, scale 0 (no effect) to 100 (complete control); read-out: Plant response rating, Sedge, Umbrella
# Method in brief: (§2)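 Greenhouse pots flooded to 3 cm above soil at time of treatment received compound via the water, which stayed at that level.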
# rice (Oryza sativa) = experiment: Test B flooded paddy; conditions: Oryza sativa, 336 h; 250 g ai/ha, Flood, 13 to 15 days, scale 0 (no effect) to 100 (complete control); read-out: Plant response rating, Rice
# Method in brief: as §2
# [17] = test system: barnyardgrass (Echinochloa crus-galli); experiment: Test B flooded paddy; conditions: Echinochloa crus-galli, 336 h; 250 g ai/ha, Flood, 13 to 15 days, scale 0 (no effect) to 100 (complete control); read-out: Plant response rating, Barnyardgrass
# Method in brief: as §2
# [18] = test system: ducksalad (Heteranthera limosa); experiment: Test B flooded paddy; conditions: Heteranthera limosa, 336 h; 250 g ai/ha, Flood, 13 to 15 days, scale 0 (no effect) to 100 (complete control); read-out: Plant response rating, Ducksalad
# Method in brief: as §2
# [19] = test system: lambsquarters (Chenopodium album); experiment: Test C preemergence; conditions: Chenopodium album, pre-emergence, 336 h, scale 0 to 100, read-out: Plant response rating, Lambsquarters
# Method in brief: (§3)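 Visual ratings (0 none to 100 complete control) were made 13 to 15 days after treatment, relative to controls. Test chemicals, formulated in a non-phytotoxic solvent mixture with surfactant, were applied in the greenhouse preemergence to seeded loam-sand soil or postemergence to plants 2 to 18 cm tall.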
# [20] = test system: barnyardgrass (Echinochloa crus-galli); experiment: Test C preemergence; conditions: Echinochloa crus-galli, pre-emergence, read-out: Plant response rating, Barnyardgrass
# Method in brief: as §3
smiles,measurement,setting,value
"Fc1cnc(Oc2c(F)ccc(F)c2Oc2ncc(F)cn2)nc1 [Compound 29, 2,2′-[(3,6-difluoro-1,2-phenylene)bis(oxy)]bis[5-fluoropyrimidine]]",pest or weed control at 31 g/ha,kochia (Kochia scoparia) [1]; 31 g ai/ha,80%
same,pest or weed control at 125 g/ha,kochia (Kochia scoparia) [1]; 125 g ai/ha,100%
same,pest or weed control at 31 g/ha,[2]; 31 g ai/ha,20%
same,pest or weed control at 125 g/ha,[2]; 125 g ai/ha,20%
same,pest or weed control at 31 g/ha,[3]; 31 g ai/ha,100%
same,pest or weed control at 125 g/ha,[3]; 125 g ai/ha,100%
same,pest or weed control at 31 g/ha,[4]; 31 g ai/ha,40%
same,pest or weed control at 125 g/ha,[4]; 125 g ai/ha,60%
same,pest or weed control at 31 g/ha,[5]; 31 g ai/ha,90%
same,pest or weed control at 125 g/ha,[5]; 125 g ai/ha,90%
same,pest or weed control at 31 g/ha,[6]; 31 g ai/ha,30%
same,pest or weed control at 125 g/ha,[6]; 125 g ai/ha,60%
same,plant injury at 31 g/ha,[7]; 31 g ai/ha,30%
same,plant injury at 125 g/ha,[7]; 125 g ai/ha,80%
same,pest or weed control at 31 g/ha,[8]; 31 g ai/ha,20%
same,pest or weed control at 125 g/ha,[8]; 125 g ai/ha,80%
same,"Corn plant response rating (crop injury, 0 = no effect, 100 = complete kill) at 31 g/ha",corn (Zea mays); 31 g ai/ha,20%
same,"Corn plant response rating (crop injury, 0 = no effect, 100 = complete kill) at 125 g/ha",corn (Zea mays); 125 g ai/ha,90%
same,pest or weed control at 31 g/ha,[9]; 31 g ai/ha,80%
same,pest or weed control at 125 g/ha,[9]; 125 g ai/ha,90%
same,pest or weed control at 31 g/ha,kochia (Kochia scoparia) [10]; 31 g ai/ha,80%
same,pest or weed control at 125 g/ha,kochia (Kochia scoparia) [10]; 125 g ai/ha,100%
same,pest or weed control at 31 g/ha,[11]; 31 g ai/ha,0%
same,pest or weed control at 125 g/ha,[11]; 125 g ai/ha,30%
same,pest or weed control at 31 g/ha,[12]; 31 g ai/ha,0%
same,pest or weed control at 125 g/ha,[12]; 125 g ai/ha,90%
same,pest or weed control at 31 g/ha,[13]; 31 g ai/ha,100%
same,pest or weed control at 125 g/ha,[13]; 125 g ai/ha,100%
same,pest or weed control at 31 g/ha,[14]; 31 g ai/ha,80%
same,pest or weed control at 125 g/ha,[14]; 125 g ai/ha,100%
same,pest or weed control at 31 g/ha,"[15]; 31 g ai/ha, 0 to 100 scale (0 no effect, 100 complete control), read-out: Barnyardgrass plant response rating",10%
same,pest or weed control at 125 g/ha,"[15]; 125 g ai/ha, 0 to 100 scale, read-out: Plant response rating, Barnyardgrass",100%
same,pest or weed control at 250 g/ha,[16],75%
same,plant injury at 250 g/ha,rice (Oryza sativa),85%
same,pest or weed control at 250 g/ha,[17],90%
same,pest or weed control at 250 g/ha,[18],90%
same,pest or weed control at 31 g/ha,"[19]; 31 g ai/ha, preemergence",85%
same,pest or weed control at 62 g/ha,"[19]; 62 g ai/ha, preemergence",85%
same,pest or weed control at 125 g/ha,"[19]; 125 g ai/ha, preemergence",90%
same,pest or weed control at 16 g/ha,"[19]; Preemergence, 16 g ai/ha",80%
same,pest or weed control at 31 g/ha,"[20]; 31 g ai/ha, preemergence, scale 0 to 100",75%
same,pest or weed control at 62 g/ha,"[20]; 62 g ai/ha, preemergence, scale 0 to 100",98%
same,pest or weed control at 125 g/ha,"[20]; 125 g ai/ha, preemergence, scale 0 to 100",100%
same,pest or weed control at 16 g/ha,"[20]; Preemergence, 16 g ai/ha, scale 0 to 100 (0 no effect, 100 complete control)",25%
